From US20070015725A1, “2-azapurine compounds and their uses” (Roche Diagnostics, GMBH, priority 1999, published 2007)
In the oligonucleotide strings, read from the 5' end, every base follows the letter of its sugar. An asterisk marks phosphorothioate; unmarked linkages are phosphodiester. Other units and linkages are bracketed, terminal groups are in braces. A string of capitals states the bases alone. [z2A] = 2-aza-2'-deoxyadenosine; d = 2'-deoxy (DNA)

Columns and labels:
oligonucleotide duplexes = test: Tm values and thermodynamic parameters of duplex formation (absorbance vs. temperature melting curves); format: binding; settings: for Tm / ΔG / ΔH / ΔS: 10 mM Na-cacodylate, 100 mM NaCl, 10 mM MgCl2, pH 7; for Tm: 5 μM single strand concentration; for ΔG: duplex formation (ΔG°298); for ΔG / ΔH / ΔS: 5 μM single strand, MeltWin 3.0; for ΔH / ΔS: duplex formation
Method: Determination of melting curves and thermodynamics: Absorbance vs. temperature profiles were measured on Cary 1 or 1E spectrophotometers (Varian, Australia) with a Cary thermoelectrical controller. […] 3.0. Circular dichroism (CD) spectra were recorded on a Jasco 600 (Jasco, Japan) spectropolarimeter, a thermostatically controlled bath (Lauda RCS-6) in a 1-cm cuvette.

natural nucleobases = settings: cited from earlier work

Molecule	Tm (oligonucleotide duplexes) [°C]	ΔG (oligonucleotide duplexes) [kcal/mol]	ΔH (oligonucleotide duplexes) [kcal/mol]	ΔS (oligonucleotide duplexes) [cal/K mol]	also measured
5′-d(TAGGTC6ATACT) 3′-d(ATCCAGGTATGA): duplex SEQ ID NO: 3 with SEQ ID NO: 4; 6: z^2Ad; one z^2Ad-dG pair (chain 1 dTdAdGdGdTdCd[z2A]dAdTdAdCdT; chain 2: unmodified DNA)	46	-9.9	-83	−236	
5′-d(TAGGTC6ATACT) 3′-d(ATCCAGTTATGA): duplex SEQ ID NO: 3 with SEQ ID NO: 2; 6: z^2Ad; one z^2Ad-dT pair (chain 1 TAGGTCAATACT; chain 1: DNA, [z2A] at 7, backbone not given here; chain 2: unmodified DNA)	42	-9.2	-85	−245	
5′-d(TAGGTC66TACT) 3′-d(ATCCAGAAATGA): duplex SEQ ID NO: 5 with SEQ ID NO: 6; 6: z^2Ad; two z^2Ad-dA pairs (chain 1 TAGGTCNNTACT; z2Ad modified nucleosides; modified_base (7)..(8) n = 2-Aza 2′-deoxyadenosine)	25	-5.7	-49	−141	
5′-d(TAGGTC66TACT) 3′-d(ATCCAGCCATGA): duplex SEQ ID NO: 5 with SEQ ID NO: 7; 6: z^2Ad; two z^2Ad-dC pairs (chain 1 TAGGTCNNTACT; z2Ad modified nucleosides; modified_base (7)..(8) n = 2-Aza 2′-deoxyadenosine)	20	-5.5	-41	−113	
5′-d(TAGGTC66TACT) 3′-d(ATCCAGGGATGA): duplex SEQ ID NO: 5 with SEQ ID NO: 8; 6: z^2Ad; two z^2Ad-dG pairs (chain 1 TAGGTCNNTACT; z2Ad modified nucleosides; modified_base (7)..(8) n = 2-Aza 2′-deoxyadenosine)	46	-10.1	-74	−206	
5′-d(TAGGTC66TACT) 3′-d(ATCCAGTTATGA): duplex SEQ ID NO: 5 with SEQ ID NO: 2; 6: z^2Ad; two z^2Ad-dT pairs (chain 1 dTdAdGdGdTdCd[z2A]d[z2A]dTdAdCdT; chain 2: unmodified DNA)	37	-7.7	-76	−219	
5′-d(TAGGTCAATACT) 3′-d(ATCCAGGGATGA): unmodified duplex SEQ ID NO: 1 with SEQ ID NO: 8; two dA-dG mismatches (unmodified DNA) [reference compound]	36	-7.4	-47	−127	
5′-d(TAGGTCAATACT) 3′-d(ATCCAGTTATGA): unmodified standard duplex, SEQ ID NO: 1 with SEQ ID NO: 2 (= SEQ ID NO: 10) (listed as DNA, chemistry not fully specified; one strand is listed 3' to 5') [reference compound]	46	-10.4	-82	−230	Tm (oligonucleotide duplexes; listed as 5′-d(TAGGTCAATACT) 5′-d(AGTATTGACCTA)): 47 °C
5′-d(TAGGTCGGTACT) 3′-d(ATCCAGCCATGA): unmodified duplex SEQ ID NO: 9 with SEQ ID NO: 7; two G-C pairs (listed as DNA, chemistry not fully specified; one strand is listed 3' to 5') [reference compound]	54				
Nc1nnnc2c1ncn2[C@H]1C[C@H](O)[C@@H](CO)O1 [Compound 2, 4-Amino-7-(2-deoxy-β-D-erythro-pentofuranosyl)-7H-imidazo[4,5-d][1,2,3]-triazine]					base pairing with 2′-deoxyguanosine (dG) (oligonucleotide duplexes): specifically stable base pairs; base pairing with dT, dC and dA (oligonucleotide duplexes): much less stable base pairs
O=c1[nH]nnc2c1ncn2[C@H]1C[C@H](O)[C@@H](CO)O1 [Compound 3, 7-(2-deoxy-β-D-erythro-pentofuranosyl)-7H-imidazo[4,5-d][1,2,3]-triazin-4-one]					stability of the base pair I^Az/G, less than the base pair A/T (natural nucleobases): 9 °; stability of the base pair I^Az/G, less than the regular base pair C/G (natural nucleobases): 13 °
OC[C@H]1O[C@@H](N2CNc3c2nnn2ccnc32)C[C@@H]1O [Compound 7, 3-(2-Deoxy-β-D-erythro-pentofuranosyl)-1H-diimidazo[1,2-c:4′,5′-e][1,2,3]-triazine]					melting point: 151 to 152 °C (dec.)
CC(C)CN(C=Nc1nnnc2c1ncn2[C@H]1C[C@H](O)[C@@H](CO)O1)CC(C)C [Compound 9b, 7-(2-Deoxy-β-D-erythro-pentofuranosyl)-4-{[(di-isobutylamino)methylidene]-amino}-7H-imidazo[4,5-d][1,2,3]-triazine]					melting point: 138 to 140 °C
CCCCN(C=Nc1nnnc2c1ncn2[C@H]1C[C@H](O)[C@@H](CO)O1)CCCC [Compound 9c, 7-(2-Deoxy-β-D-erythro-pentofuranosyl)-4-{[(di-n-butylamino)methylidene]-amino}-7H-imidazo[4,5-d][1,2,3]-triazine]					melting point: 107 to 109 °C
